Measurements: EP3318127A1, “COMPOSITIONS COMPRISING KHCO3” (BASF SE, priority 2013, dated 2015)

Assays:
Type in all cases: cell-based
[1] = system: Septoria tritici; test: Activity against leaf blotch on wheat caused by Septoria tritici (microtiter plate test); conditions: 0.25 ppm; 7 days after inoculation, 405 nm
[2] = system: Pyricularia oryzae; conditions: 4 ppm; 7 days after inoculation, 405 nm
[3] = system: Sclerotinia sclerotiorum; test: Activity against stem rot on wheat caused by Sclerotinia sclerotiorum (microtiter plate test); conditions: 7 days after inoculation, 405 nm
[4] = system: Botrytis cinerea; test: Activity against the grey mold Botrytis cinerea in the microtiterplate test; conditions: 7 days after inoculation, 405 nm

Question: With `O=C(Nc1ccccc1-c1ccc(Cl)cc1)c1cccnc1Cl` [Boscalid, 2-chloro-N-(4'-chlorobiphenyl-2-yl)-nicotinamide] as the compound, how does the Observed efficacy [1] read?
Answer: 40%

Question: What does the source list for `Cc1cc(C)nc(Nc2ccccc2)n1` [Pyrimethanil, 4,6-dimethylpyrimidin-2-ylphenylamine]?
Answer: Observed efficacy [2]: 37%; Observed efficacy ([3]; 1 ppm): 20%; Observed efficacy ([3]; 4 ppm): 27%; Observed efficacy ([3]; 16 ppm): 49%; Observed efficacy ([4]; 1 ppm): 39%; Observed efficacy ([4]; 4 ppm): 60%
